Measurements reported in patent US6949356B1, “Methods for improving secondary metabolite production in fungi” (Microbia, Inc., priority 1999, dated 2005).

System: S. cerevisiae strain 22409
Test: Lovastatin resistance test: yeast transformants spotted to SC-URA agar containing different concentrations of lovastatin (FIG. 1)
Assay type: cell-based, Saccharomyces cerevisiae
Protocol: These genes are predicted to encode proteins, denoted by Genbank accession numbers AAD34558 (hereafter referred to as PUMP1) and AAD34564 (hereby referred to as PUMP2), that are members of the MFS class of transporters. As described above, some MFS transporters are known to confer resistance to toxic compounds. PUMP1 and PUMP2 were tested for their ability to confer resistance to otherwise toxic levels of lovastatin when expressed in the fungus S. cerevisiae.
The polyA+ fraction of the A. terreus total RNA was isolated using Oligotex beads (Qiagen Inc.). Purified polyA+ RNA (5 μg) was used to generate complementary DNA (cDNA) using Superscript Reverse Transcriptase (Gibco BRL, 9800 Medical Center Drive, PO Box 6482, Rockville, Md. 20849) according to the instructions of the manufacturer. The cDNA was then used to isolate and clone PUMP1 and PUMP2 gene sequences using the polymerase chain reaction (PCR) and Gateway (Life Technologies) Cloning Technology (U.S. Pat. No. 5,888,732). Oligonucleotide sequences used for PCR were 5′-[…]-3′ (SEQ ID NO: 7) and 5′-[…]-3′ (SEQ ID NO: 8) for PUMP1. Oligonucleotide sequences used for PUMP2 PCR were 5′-[…]-3′ (SEQ ID NO: 9) and 5′-[…]-3′ (SEQ ID NO: 10). The resultant plasmids, MB1333 and MB1334, were designed to express PUMP1 and PUMP2, respectively, under control of the S. cerevisiae TEF1 promoter. The plasmids carry a functional URA3 gene to allow for selection of the plasmid on media lacking uracil in a ura3 mutant strain. These plasmids also contained a 2-micron origin for high-copy replication in yeast. […] Environ. Microbiol. 63: 33414 (1997) as pRH127-3, that expresses a soluble form of HMG CoA reductase under control of the yeast GPD1 promoter and is known to confer resistance to increased levels of lovastatin (Donald et al., Appl. Environ. Microbiol. 63: 3341-4 (1997)).
MB1333, MB1334, MB969 and MB1344 were transformed into the yeast strain 22409 (Research Genetics, USA) using standard transformation methods for S. cerevisiae (Biotechniques, 1992, 13(1): 18). Strain 22409 is derived from the S288c strain background of S. cerevisiae, and its complete genotype is as follows: MATa/α, his3Δ1/his3Δ1, leu2Δ1/leu2Δ0, ura3Δ0/ura3Δ0, LYS2/lys2Δ0, MET15/met15Δ0 pdr5::G418/PDR5. Transformants were grown overnight at 30° C. in synthetic complete media lacking uracil (SC-U) to maintain selection for the plasmid. Cultures were diluted 1:10 in sterile water, and 5 μl of each strain was spotted to SC-URA agar containing different concentrations of lovastatin as shown in FIG. 1.

With CC[C@H](C)C(=O)O[C@H]1C[C@@H](C)C=C2C=C[C@H](C)[C@H](CC[C@@H]3C[C@@H](O)CC(=O)O3)[C@H]21 [lovastatin] the “growth inhibition by lovastatin” value (positive control strain carrying MB1344 (soluble fragment of HMG CoA reductase overexpressed), highest concentration of lovastatin tested, 150 μg/ml) was “no obvious growth inhibition”, the “growth inhibition by lovastatin” value (strain expressing PUMP2 (MB1334), lowest concentration of lovastatin tested, 50 μg/mL) was “growth inhibition” and the “growth inhibition by lovastatin” value (strain harboring MB1333 (expressing PUMP1), highest concentration of lovastatin tested, 150 μg/ml) was “no obvious growth inhibition”. The “growth inhibition by lovastatin” value (vector-only control strain (MB969), lowest concentration of lovastatin tested, 50 μg/mL) was “growth inhibition”.
